{"source": "patent US8993626B2", "about": "“Methods of treatment using sterculic acid” (The United States of America, as represented by the …, priority 2010, dated 2015)", "key": {"ARPE19 cells": {"tested_on": "ARPE19 cells", "assay": "Cell Counting Kit-8 viability assay, 15 μM 7KCh-induced cytotoxicity", "conditions": "1 μM fatty acid + 15 μM 7KCh", "protocol": "4×10^4 cells were seeded onto wells of a 96 well plate. […] Cell viability was determined as celluar dehydrogenase activity and expressed as the percentage of compound treated cells relative to that of untreated controls. error bar: standard deviation, n=4.\nThe kit allows sensitive colorimetric assays for the determination of the number of viable cells in cell proliferation and cytotoxicity assays. The amount of the formazan dye generated by the activity of dehydrogenases in cells is directly proportional to the number of living cells.\n1) Cells were cultivated in a 96 well cell plate (Costar#3599, Corning Incorp, Corning, N.Y.).\n2) The cell suspension (40,000 cells/100 μL) were added to 100 μL culture media per well and stood for 15 min at room temperature and cultured at 37° C. in a humidified 5% CO2 atmosphere.\n3) Approximately 19 hr after seeding, when the cells were fully confluent, the cells were treated with either DMSO or 1 μM fatty acid in 200 μL of serum free media and subsequently added with 15 μM 7KCh in HPBCD. Then, the plate was swirled for mixing. The cells were also treated with DMSO and HPBCD, which served as vehicle control. The final DMSO and HPBCD concentrations in the media were in the range of 0.1% and 0.0675%, respectively.\nCell viability was expressed as the percentage of compound treated cells relative to that of untreated controls. Prior to measure cell viability, the cells were imaged live by Nikon TE 2000-U inverted fluorescent microscope."}, "Renal Cancer, RXF-393": {"tested_on": "Renal Cancer, RXF-393", "assay": "NCI in vitro anti-cancer cell line screen (SRB)", "conditions": "Homo sapiens, RXF 393, 48 h", "protocol": "(§2) The human tumor cell lines used in the cancer screen panel were grown in RPMI 1640 medium containing 5% FBS and 2 mM L-glutamine. The cells were inoculated into 96-well microtiter plates in 100 μl at plating density ranging from 5000 to 40,000 cell/well. […] Following drug addition, the plates were incubated for an additional 48 h. The assay was terminated by the addition of cold 10% TCA. The supernatant was discarded, and the plates were washed five times with water and air dried. Sulforhodamine B (SRB) solution (100 μl) at 0.4% (w/v) in 1% acetic acid was added to each well, and plates were incubated for 10 min at room temperature. After staining, unbound dye was removed by washing five times with 1% acetic acid and the plates were air dried. Bound stain was subsequently solubilized with 10 mM trizma base, and the absorbance was read on an automated plate reader at a wavelength of 515 nm.\n(§3) A sulforhodamine B (SRB) end point was used to calculate the median growth inhibition (GI50). GI50 refers to the concentration at which the drug inhibits tumor cell growth by 50%."}, "Melanoma, LOX-IMVI": {"tested_on": "Melanoma, LOX-IMVI", "assay": "NCI in vitro anti-cancer cell line screen (SRB)", "conditions": "Homo sapiens, 48 h", "protocol": "as §2, §3"}, "[1]": {"tested_on": "Human retinal pigment epithelial (RPE) cells (ARPE-19)", "assay": "Microarray-based gene expression analysis of sterculic acid treated RPE cells", "format": "cell-based", "conditions": "10 μM sterculic acid, 72 h", "experimental": "Human retinal pigment epithelial (RPE) cells (ARPE-19) obtained from ATCC (Manassas, Va.) were grown in Dulbecco's Modified Eagle's Medium (DMEM) containing nutrient mixture F12 (Cellgro, Va.) supplemented with 5% fetal bovine serum, penicillin (100 U/ml) and streptomycin (100 μg/ml). Cells were seeded at a density of 2×10^5 cells/ml in complete medium and allowed to grow overnight. The culture medium was replaced next day with fresh medium before treating with 10 μM of sterculic acid dissolved in DMSO. The controls received the same amount of DMSO. After 72 h, total RNA, 100 ng, was amplified according to Affymetrix's small sample protocol, and 20 μg of cRNA was then hybridized on each NEI GeneChip microarray. After hybridization, GeneChip array was washed, stained with streptavidin-PE (Molecular Probes), amplified with biotinylated anti-streptavidin antibody and scanned with an argon ion Confocal Laser at 570 nm (Affymetrix). Affymetrix GeneChip Operating software was used for absolute expression and to normalize the gene expression levels between any two samples. Data were then incorporated into GeneSpring software 7.2 ([…]) for chip normalization, filtering and cluster analysis."}, "ARPE-19 cells": {"tested_on": "ARPE-19 cells", "assay": "qRT-PCR of cytokines in TNF-α treated cells", "format": "cell-based", "experimental": "FIGS. 17A-17D depict the mRNA expressions of (A) IL-1β, (B) IL-8, (C) IκBα, and (D) GRP78 in response to 2 ng/ml TNF-α, 1 μM sterculic acid, 1 μM stearic acid, or the combinations of TNF-α with either sterculic acid or stearic acid. n=3. Error bars indicate the standard deviations.\nTumor necrosis factor-alpha (TNF-α, Roche Diagnostics, Indianapolis, Ind.) was diluted in PBS to make 10 μg/ml stock solution and stored at −20° C. In order to test the anti-inflammation effect of fatty acids against TNF-α, ARPE-19 cells were treated with 2 ng/ml of TNF-α for 24 hr in serum-free medium with or without 1 μM fatty acids. The mRNA expressions of cytokines were then examined using qRT-PCR. Each treatment was performed three times with quadruplicate measurements in each experiment, in 24-well plates.\n(§1) The RNA was extracted using RNeasy Mini Kit (Qiagen, Valencia, Calif.). The reverse transcription was performed with reagents and kits from Invitrogen. Quantification of mRNA expression was performed using the Taqman gene expression assays and the following primers (VEGFa, Hs00173626_m1; IL-1β, Hs01555413_m1; IL-6, Hs00174131_m1; IL-8, Hs00174103_m1; IκBα, Hs00153283_m1; GRP78, Hs99999174_m1; CHOP, Hs01090850_m1; NOX2, Hs00166163_m1; NOX4, Hs01558199_m1; SCD, Hs00748952 s1; TNF-α, Hs00174128_m1; TGF-β1, Hs00998133_m1; GAPD, 4352934e). GAPD expression was used as an endogenous standard. All qRT-PCR experiments were measured in triplicates in an ABI 7500 Real-Time PCR Instrument (Applied Biosystems, Foster City, Calif.). The results of each treatment were normalized and presented in percentage relative to the vehicle-only control."}, "Colon Cancer, SW-620": {"tested_on": "Colon Cancer, SW-620", "assay": "NCI in vitro anti-cancer cell line screen (SRB)", "conditions": "Homo sapiens, SW-620, 48 h", "protocol": "as §2, §3"}, "Leukemia, HL-60 (TB)": {"tested_on": "Leukemia, HL-60 (TB)", "assay": "NCI in vitro anti-cancer cell line screen (SRB)", "format": "cell-based", "conditions": "Homo sapiens, 48 h"}, "[2]": {"tested_on": "stearoyl-CoA desaturase (SCD)", "assay": "SCD mRNA expression (qRT-PCR)", "format": "cell-based", "experimental": "FIGS. 18A and 18B depict (A) Dose response of SCD mRNA inductions by 0-12 μM 7KCh after 24 hr treatments. (B) The mRNA expressions of SCD in response to 8 μM 7KCh, 1 μM sterculic acid, 1 μM stearic acid, or the combinations of 7KCh with either sterculic acid or stearic acid. Error bars indicate the standard deviations. n=4.\nas §1\nTo determine the effect of 7KCh on SCD expression ARPE-19 cells were incubated with 4 μM 7KCh for 24 hr. 7KCh suppressed SCD mRNA expression by approximately 60-70% (FIG. 18A). […] Treatment of the cells with 8 μM 7KCh and 1 μM sterculic acid further suppress SCD expression to 86% (FIG. 18B). […] This is the only instance where 7KCh and sterculic acid worked synergistically rather than antagonistically."}}, "data": [{"compound": "CCCCCCCCC1=C(CCCCCCCC(=O)O)C1", "note": "[sterculic acid, 8-(2-octacyclopropen-1-yl)octanoic acid]", "values": [{"measurement": "protective effect against cytotoxicity by 7KCh (summary of the viability assays)", "setting": "ARPE19 cells", "value": "greatest protective effect"}, {"measurement": "GI50", "setting": "Renal Cancer, RXF-393", "value": 10, "unit": "µM"}, {"measurement": "GI50", "setting": "Melanoma, LOX-IMVI", "value": 1, "unit": "µM"}, {"measurement": "Fold Change, ALDH3A1, down-regulated", "setting": "[1]", "value": 7, "unit": "fold"}, {"measurement": "Fold Change, ALDH7A1, up-regulated", "setting": "[1]", "value": 15, "unit": "fold"}, {"measurement": "Fold Change, ATF4, down-regulated", "setting": "[1]", "value": 7, "unit": "fold"}, {"measurement": "Fold Change, BMP7, up-regulated", "setting": "[1]", "value": 6, "unit": "fold"}, {"measurement": "Fold Change, CRABP1, down-regulated", "setting": "[1]", "value": 8, "unit": "fold"}, {"measurement": "Fold Change, CTSC, up-regulated", "setting": "[1]", "value": 9, "unit": "fold"}, {"measurement": "Fold Change, FNTA, up-regulated", "setting": "[1]", "value": 4, "unit": "fold"}, {"measurement": "Fold Change, GADD45B, down-regulated", "setting": "[1]", "value": 7, "unit": "fold"}, {"measurement": "Fold Change, GOT2, up-regulated", "setting": "[1]", "value": 5, "unit": "fold"}, {"measurement": "Fold Change, HSPCA, up-regulated", "setting": "[1]", "value": 11, "unit": "fold"}, {"measurement": "Fold Change, HYOU1, down-regulated", "setting": "[1]", "value": 10, "unit": "fold"}, {"measurement": "Fold Change, IGFBP3, down-regulated", "setting": "[1]", "value": 3, "unit": "fold"}, {"measurement": "Fold Change, MMP2, down-regulated", "setting": "[1]", "value": 7, "unit": "fold"}, {"measurement": "Fold Change, MT1H, down-regulated", "setting": "[1]", "value": 8, "unit": "fold"}, {"measurement": "Fold Change, PALLD, up-regulated", "setting": "[1]", "value": 5, "unit": "fold"}, {"measurement": "Fold Change, SCEL, up-regulated", "setting": "[1]", "value": 5, "unit": "fold"}, {"measurement": "Fold Change, SOD1, up-regulated", "setting": "[1]", "value": 5, "unit": "fold"}, {"measurement": "Fold Change, SUOX, up-regulated", "setting": "[1]", "value": 3, "unit": "fold"}, {"measurement": "Fold Change, VBP1, up-regulated", "setting": "[1]", "value": 5, "unit": "fold"}, {"measurement": "induction of GRP78 mRNA expression", "setting": "ARPE-19 cells; 2 ng/ml TNF-α alone or with 1 μM fatty acid, 24 hr, FIG. 17D", "value": "small measurable effect"}, {"measurement": "antagonist effect to the cytokine inductions by TNF-α", "setting": "ARPE-19 cells; 1 μM fatty acid + 2 ng/ml TNF-α, 24 hr", "value": "did not show any antagonist effect"}, {"measurement": "antagonist effect to TNF-α at 5 μM", "setting": "ARPE-19 cells; 5 μM, data not shown", "value": "failed to antagonize"}, {"measurement": "GI50", "setting": "Colon Cancer, SW-620", "value": 1, "unit": "µM"}, {"measurement": "GI50", "setting": "Leukemia, HL-60 (TB)", "value": 10, "unit": "µM"}, {"measurement": "inhibition of SCD expression", "setting": "[2]; 1 μM sterculic acid alone", "value": "similarly to 8 μM 7KCh"}, {"measurement": "suppression of SCD expression", "setting": "[2]; 8 μM 7KCh and 1 μM sterculic acid", "value": 86, "unit": "%"}]}]}
